Assay results from PubChem BioAssay (NCI).
“And” between values parts separate entries of the source, which are not always exact repeats. Identical values can stand only once.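 A five-concentration, 48-hour dose response in 96-well plates underlies each endpoint, interpolated linearly between surrounding concentrations. Abbreviation: GI50, concentration required for 50% inhibition of growth. TGI marks complete inhibition of growth.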

Key:
Test in all cases: DTP human tumour cell line panel, 48 h
[1] = system: MDA-N
[2] = system: PC-3 prostate
[3] = system: MDA-MB-231 breast
[4] = system: HS 578T breast
[5] = system: T-47D breast
[6] = system: DLD-1 colon
[7] = system: M19-MEL melanoma
[8] = system: HOP-18 NSCLC
[9] = system: XF 498 CNS

## Nc1nc2nc3c(nc2c(=O)[nH]1)CN(c1ccc(C(=O)O)cc1)C3=O
[1]
  TGI: > 100 µM
[2]
  TGI: > 100 µM
[3]
  TGI: > 100 µM
[4]
  TGI: > 100 µM
[5]
  TGI: > 100 µM

## CC1CN(CCO)CC(C)O1 (stereo not given)
[1]
  TGI: > 100 µM
[2]
  TGI: > 100 µM
[3]
  TGI: > 100 µM
[4]
  TGI: > 100 µM
[5]
  TGI: > 100 µM

## CCCCC1(N=[N+]=[N-])C(=O)c2cccc3c2N(CCC3)C1=O (stereo not given)
[1]
  TGI: > 100 µM
[2]
  TGI: > 100 µM
[3]
  TGI: > 100 µM
[4]
  TGI: > 100 µM
[5]
  TGI: > 100 µM

## COc1ccc(C(=O)/C=C/c2ccc(Cl)cc2)cc1S(N)(=O)=O
[2]
  GI50: 2.24 µM
  TGI: 5.24 µM
[3]
  GI50: 3.48 µM
  TGI: 11.7 µM
[4]
  GI50: 3.28 µM
  TGI: 18.4 µM
[5]
  GI50: 3.2 µM
  TGI: 14.4 µM

## COc1ccc([C@H]2c3cc(OC)c(OC)cc3C=C(C=O)C2CO)cc1OC (stereo not given in full)
[3]
  GI50: 6.74 µM
  TGI: > 100 µM
[4]
  GI50: 2.72 µM
  TGI: 17.3 µM

## CC(C)(O)Cn1c(=O)c(Oc2ccc(F)cc2F)cc2cnc(NC3CCOCC3)nc21
[2]
  GI50: > 25 µM
  TGI: > 25 µM
[3]
  GI50: > 25 µM
  TGI: > 25 µM
[4]
  GI50: > 25 µM
  TGI: > 25 µM
[5]
  GI50: > 25 µM
  TGI: > 25 µM

## O=C1CCC/C=C\C[C@H]2C=C(Cl)C(=O)/C2=C/C[C@H](CCCCC(F)(F)F)OC(=O)CCC/C=C\C[C@H]2C=C(Cl)C(=O)/C2=C/C[C@H](CCCCC(F)(F)F)O1
[2]
  GI50: 0.192 µM
  TGI: 0.574 µM
[3]
  GI50: 0.194 µM
  TGI: 0.504 µM
[4]
  GI50: 0.267 µM
  TGI: 7.5 µM
[5]
  GI50: 0.204 µM
  TGI: 1.16 µM

## CC(C)c1ccc2c(c1)CCC1C(C)(C)[C@@H](O)CC[C@]21C (stereo not given in full)
[6]
  TGI: > 100 µM
[7]
  TGI: 44.2 µM

## CCOP1(=O)OCC2OC(n3cnc4c(N)ncnc43)C(O)C2O1 (stereo not given)
[1]
  TGI: > 100 µM
[2]
  TGI: > 100 µM
[3]
  TGI: > 100 µM
[4]
  TGI: > 100 µM
[5]
  TGI: > 100 µM

## Cc1cc(Cl)n2c(nc3ccccc32)c1C#N
[2]
  GI50: 0.383 µM
  TGI: 1.6 µM
[3]
  GI50: 0.649 µM
  TGI: 4.58 µM
[4]
  GI50: 1.02 µM
  TGI: 23.4 µM
[5]
  GI50: 0.718 µM
  TGI: 2.3 µM

## O=C(CC(O)(c1ccccc1)c1ccc(Cl)cc1)NC(=O)c1ccccc1O (stereo not given)
[6]
  TGI: > 100 µM
[7]
  TGI: 82.8 µM
[8]
  TGI: 8.97 µM

## Cc1ncc(C(=O)Nc2ccc(CN3CCN(C)CC3)c(C(F)(F)F)c2)cc1C#Cc1c(N)ncc2ccc(C#N)cc12
[2]
  GI50: 4.49 µM
  TGI: 19.3 µM
[3]
  GI50: 0.161 µM
  TGI: 1.89 µM
[4]
  GI50: 0.572 µM
  TGI: 4.93 µM
[5]
  GI50: > 14.5 µM
  TGI: > 50 µM

## C=CCCc1cc(OC)ccc1CN(C)C(C)(C)CO
[6]
  TGI: > 100 µM
[7]
  TGI: > 100 µM
[8]
  TGI: > 100 µM

## Cc1ccc(S(=O)(=O)NCCCN(CCCNS(=O)(=O)c2ccc(C)cc2)S(=O)(=O)c2ccc(C)cc2)cc1
[6]
  TGI: > 100 µM
[7]
  TGI: > 100 µM

## CCCCc1ccc2nc(NC(=O)OC)[nH]c2c1
[2]
  GI50: 0.0413 µM
  TGI: > 82.7 µM
[3]
  GI50: 0.291 µM
  TGI: > 74.7 µM
[4]
  GI50: 0.0266 µM
  TGI: 0.649 µM
[5]
  GI50: 0.0392 µM
  TGI: > 100 µM

## Cc1c2c(n3c(nc4ccccc43)c1C#N)SCC2
[1]
  TGI: > 10 µM
[2]
  TGI: > 10 µM
[3]
  TGI: > 10 µM
[4]
  TGI: > 10 µM
[5]
  TGI: > 10 µM

## O=C(Nc1nc2ncn(CCOC(=O)c3ccccc3)c2c(=O)[nH]1)c1ccccc1
[1]
  TGI: 7.89 µM
[9]
  TGI: 55.7 µM
[2]
  TGI: > 100 µM
[3]
  TGI: > 100 µM
[8]
  TGI: > 100 µM
[4]
  TGI: 51.7 µM
[5]
  TGI: > 100 µM

## COc1ccc(CCNc2nc3ccccc3c3[nH]c4ccccc4c23)cc1OC
[2]
  GI50: 3.66 µM
  TGI: 14 µM
[3]
  GI50: 2.21 µM
  TGI: 8.03 µM
[4]
  GI50: 2.54 µM
  TGI: 6.17 µM
[5]
  GI50: 15.3 µM
  TGI: 34.2 µM

## COC1CC(OC2OC(CO)C(O)C(O)C2O)/C(=C\C#N)C(O)C1OC (stereo not given)
[1]
  TGI: > 100 µM
[2]
  TGI: > 100 µM
[3]
  TGI: > 100 µM
[4]
  TGI: > 100 µM
[5]
  TGI: > 100 µM

## O=c1c(Cl)nsnc1Cl
[1]
  TGI: 36.9 µM
[2]
  TGI: 39.1 µM
[3]
  TGI: 41.8 µM
[4]
  TGI: 78.9 µM
[5]
  TGI: > 31.6 µM

## CC(=O)Oc1c(-c2ccccc2)[nH]c2cc([N+](=O)[O-])c(/C(Cl)=C/c3ccccc3)cc12
[9]
  TGI: 19.3 µM
[6]
  TGI: > 100 µM
[7]
  TGI: 19.4 µM

## Clc1ccc(Cl)c(N/N=C\c2c[nH]c3ccccc23)c1
[2]
  GI50: 0.915 µM
  TGI: 9.48 µM
[3]
  GI50: 2.05 µM
  TGI: 8.07 µM
[4]
  GI50: 3.89 µM
  TGI: 23.1 µM

## CC/C(=C(\c1ccccc1)c1ccc(OCCN(C)C)cc1)c1ccccc1
[1]
  GI50: > 25 µM and 6.53 µM
  TGI: > 25 µM and 8.31 µM and 9.59 µM
[2]
  GI50: 2.47 µM
[3]
  GI50: 3.59 µM
[5]
  GI50: 0.805 µM

## CC(=O)O[C@@H]1C=CC(=O)C2(CC(=O)O[C@@H]2/C=C(\C)CCC=C(C)C)C1 (stereo not given in full)
[2]
  GI50: 0.383 µM
  TGI: 1.19 µM
[3]
  GI50: 0.405 µM
  TGI: 1.33 µM
[4]
  GI50: 2.54 µM
  TGI: > 23.4 µM
[5]
  GI50: 0.389 µM
  TGI: 0.873 µM

## Cc1cc2c(-c3nc4ccccc4[nH]3)c(O)c(O)cc2c(O)c1-c1c(C)cc2c(-c3nc4ccccc4[nH]3)c(O)c(O)cc2c1O
[2]
  GI50: 0.0187 µM
  TGI: > 34.4 µM
[3]
  GI50: 0.0835 µM
  TGI: > 38.9 µM
[4]
  GI50: 0.0629 µM
  TGI: > 50 µM
[5]
  GI50: 0.0168 µM
  TGI: 0.741 µM

## C#Cc1cccc(NC(=O)Nc2ccccc2NC(=O)CCl)c1
[2]
  GI50: 21.5 µM
  TGI: 58 µM
[3]
  GI50: 16.6 µM
  TGI: 34.6 µM
[4]
  GI50: 17.1 µM
  TGI: 56.1 µM
[5]
  GI50: 31.1 µM
  TGI: > 82.5 µM

## COc1ccc(CN2CCc3c(Cl)nc(N)nc3C2=O)c(OC)c1
[3]
  GI50: 14.8 µM
  TGI: 30.3 µM
[4]
  GI50: 19.2 µM
  TGI: 50.5 µM
[5]
  GI50: 11 µM
  TGI: 39.8 µM

## CN(C)C1(C#N)CCC2(CC1)OCCO2
[7]
  TGI: > 100 µM

## CCc1cc(C(N)=O)ccc1-n1nc(C(C)C)c2c(-n3cnc(-c4cnn(C)c4)c3)ccnc21
[2]
  GI50: 3.61 µM
  TGI: > 100 µM
[3]
  GI50: 3.25 µM
  TGI: > 100 µM
[4]
  GI50: 12 µM
  TGI: > 100 µM
[5]
  GI50: 1.83 µM
  TGI: > 100 µM
